Experimental data from US20080220444A1, “Bone Marrow Proliferation Assay” (priority 2003, published 2008).

Legend:
[1] = system: human bone marrow cells; experiment: Bone marrow proliferation assay (3H-thymidine uptake, cytokine-activated cells); assay type: cell-based; conditions: Bone marrow cell; for IC50: concentration inhibiting proliferation by 50%
Protocol: Bone marrow (BM) was obtained from human donors, collected in Dulbecco's phosphate buffered saline (DPBS) containing 200 units/mL of heparin. The BM cells were then processed as described below. ROSETTESEP™ cocktail was added to the BM cells at a ratio of 50 μL of cocktail per 1 mL of cells in a test tube and the tubes were mixed well by repeated inversion. This mixture was then incubated at room temperature for approximately 20 minutes. A mixture containing PBS/2% FBS/1 mM EDTA was prepared and the BM sample was mixed in a 1:2 ratio (e.g., 10 mL marrow+20 mL PBS/2% FBS/1 mM EDTA) and gently mixed by inversion. […] Cells were counted and viability checked and cells were adjusted to 5×10^5/mL in complete medium containing the following human recombinant growth factors/cytokines at the indicated final concentrations (cytokines may be obtained from various sources; those from StemCell Technologies were used herein): • Stem Cell Factor (50 ng/mL) • GM-CSF (20 ng/mL) • IL-3 (20 ng/mL) • IL-6 (20 ng/mL) • G-CSF (20 ng/mL)
Flat-bottom microtiter tissue culture plates (96 well) were used for the assay. Cells were placed in wells so that each well contained 5×10^4 cells. Typically, cultures were performed in triplicate wells. Wells were brought to a final volume of 200 μL with either complete medium or various concentrations of test compounds, which were diluted in complete medium. Plates were covered with plastic wrap (to reduce evaporation) and placed in a humidified 5% CO2 incubator at 37° C. for 3 days.

[2] = system: human bone marrow cells; experiment: Traditional CFU-GM colony-forming assay (myelotoxicity); assay type: cell-based
Protocol: Bone marrow was enriched after ficoll hypaque density centrifugation. 1×10^5 bone marrow cells per dish, containing METHOCULT GF H4534 (1% methylcellulose, 30% FBS, 1% BSA, 10^-4 M 2-ME, 2 mM L-gln, 50 ng/mL recombinant human (rh) stem cell factor (SCF), 10 ng/mL rh granulocyte/macrophage-colony stimulating factor (GM-CSF), and 10 ng/mL rh interleukin-3 (IL-3). METHOCULT was obtained from StemCell Technologies (Vancouver, BC, Canada). Cultures were treated with various concentrations of test compounds for the entire culture period. Cultures were performed in duplicate and were incubated for ˜14 days at 37° C. in 5% CO2 and scored for colony growth (colony-forming units-granulocyte/macrophage, or CFU-GM) with a phase-contrast inverted microscope. Colonies containing >50 cells were considered positive.

[3] = 72 h, Prolif., linear regression, 3 days, mean +/- spread
[4] = CFU-GM, 336 h, CFU-GM, concentration inhibiting colony growth by 50%, linear regression, ~14 days, mean +/- spread
[5] = CFU-GM, 336 h, CFU-GM, concentration inhibiting colony growth by 90%, linear regression, ~14 days, mean +/- spread
[6] = 72 h, Prolif., concentration inhibiting proliferation by 90%, linear regression, 3 days, mean +/- spread, read-out: IC90
[7] = Bone marrow cell, Colony-forming Assay, intra-assay variation, equal to the mean of the five determinations
[8] = Bone marrow cell, Colony-forming Assay, intra-assay variation, individual determinations

SMILES	IC90 ([1]; 72 h)	IC50 [1, 3]	IC50 [2, 4]	IC90 [2, 5]	IC90 [1, 6]	IC90 ([1]; Proliferation Assay, intra-assay variation, equal to the mean of the five determinations, read-out: IC90)	IC90 ([1]; Proliferation Assay, intra-assay variation, individual determinations, read-out: IC90)	IC50 [2, 7]	IC90 [2, 7]	IC50 [2, 8]	IC90 [2, 8]
Cc1cn([C@H]2C[C@H](N=[N+]=[N-])[C@@H](CO)O2)c(=O)[nH]c1=O [AZT, 3′-azido-3′-deoxythymidine]	146000 nM	17100 nM	34500 nM	387000 nM							
COc1cccc2c1C(=O)c1c(O)c3c(c(O)c1C2=O)C[C@@](O)(C(=O)CO)C[C@@H]3O[C@H]1C[C@H](N)[C@H](O)[C@H](C)O1 [Doxorubicin, doxorubicin]			40 nM	132 nM	68 nM	70.2 nM	71.2 nM	29.1 nM	69.2 nM	34.2 nM	72.4 nM
Nc1ccn([C@@H]2O[C@H](CO)[C@@H](O)C2(F)F)c(=O)n1 [Gemcitabine, gemcitabine]		1.2 nM	1.3 nM	4.2 nM	4.4 nM						
CC(=O)O[C@H]1C(=O)[C@@]2(C)[C@H]([C@H](OC(=O)c3ccccc3)[C@]3(O)C[C@H](OC(=O)[C@H](O)[C@@H](NC(=O)c4ccccc4)c4ccccc4)C(C)=C1C3(C)C)[C@]1(OC(C)=O)CO[C@@H]1C[C@@H]2O [Paclitaxel, paclitaxel]		1.9 nM	3.4 nM	6 nM	4.9 nM						
Nc1ccn([C@@H]2S[C@H](CO)[C@@H](O)[C@@H]2O)c(=O)n1 [Thio-ara-C, thio-ara-C]		75 nM	40.3 nM	122 nM	301 nM						
